Assay results as given in the NIST ThermoML archive (doi:10.1021/acs.jced.7b00335).
Numbers after ± are expanded uncertainties.

Experiment: xn = mol fraction of the nth substance listed
Details: 100 kPa, Liquid; for viscosity: Concentric cylinders viscometry; for mass density: Vibrating tube method

O=Cc1ccccc1 [benzaldehyde] + CCCC(C)O
Details	mass density [kg/m3]	viscosity [mPa·s]
293.15 K, x1 = 0.0809	825.2 ± 1	3.3 ± 0.13
293.15 K, x1 = 0.1662	841.4 ± 1	2.75 ± 0.11
293.15 K, x1 = 0.2441	858.3 ± 1	2.36 ± 0.1
293.15 K, x1 = 0.3552	882.5 ± 1	1.95 ± 0.08
293.15 K, x1 = 0.4418	903 ± 1	1.757 ± 0.071
293.15 K, x1 = 0.5664	933.2 ± 1	1.62 ± 0.07
293.15 K, x1 = 0.6565	956.4 ± 1	1.568 ± 0.064
293.15 K, x1 = 0.7447	980 ± 1	1.537 ± 0.062
293.15 K, x1 = 0.8528	1008.5 ± 1	1.516 ± 0.062
293.15 K, x1 = 0.9419	1031.8 ± 1	1.51 ± 0.06
293.15 K, x1 = 1	1046.3 ± 1	1.52 ± 0.06
298.15 K, x1 = 0.0809	821.1 ± 1	2.775 ± 0.11
298.15 K, x1 = 0.1662	837.2 ± 1	2.35 ± 0.1
298.15 K, x1 = 0.2441	854 ± 1	2.05 ± 0.08
298.15 K, x1 = 0.3552	878.2 ± 1	1.731 ± 0.07
298.15 K, x1 = 0.4418	898 ± 1	1.584 ± 0.064
298.15 K, x1 = 0.5664	928.2 ± 1	1.458 ± 0.059
298.15 K, x1 = 0.6565	951.2 ± 1	1.416 ± 0.058
298.15 K, x1 = 0.7447	975.4 ± 1	1.395 ± 0.057
298.15 K, x1 = 0.8528	1004.1 ± 1	1.39 ± 0.06
298.15 K, x1 = 0.9419	1027.4 ± 1	1.395 ± 0.057
298.15 K, x1 = 1	1041.7 ± 1	1.41 ± 0.06
303.15 K, x1 = 0.0809	817 ± 1	2.4 ± 0.1
303.15 K, x1 = 0.1662	833 ± 1	2.06 ± 0.08
303.15 K, x1 = 0.2441	849.7 ± 1	1.809 ± 0.073
303.15 K, x1 = 0.3552	873.9 ± 1	1.55 ± 0.06
303.15 K, x1 = 0.4418	894.4 ± 1	1.411 ± 0.057
303.15 K, x1 = 0.5664	923.8 ± 1	1.301 ± 0.053
303.15 K, x1 = 0.6565	946.9 ± 1	1.259 ± 0.051
303.15 K, x1 = 0.7447	971 ± 1	1.25 ± 0.05
303.15 K, x1 = 0.8528	1000 ± 1	1.259 ± 0.051
303.15 K, x1 = 0.9419	1023.1 ± 1	1.28 ± 0.05
303.15 K, x1 = 1	1037.1 ± 1	1.31 ± 0.05
308.15 K, x1 = 0.0809	812.9 ± 1	2.035 ± 0.083
308.15 K, x1 = 0.1662	828.8 ± 1	1.78 ± 0.07
308.15 K, x1 = 0.2441	845.5 ± 1	1.584 ± 0.064
308.15 K, x1 = 0.3552	869.6 ± 1	1.369 ± 0.056
308.15 K, x1 = 0.4418	890.3 ± 1	1.25 ± 0.05
308.15 K, x1 = 0.5664	919.3 ± 1	1.159 ± 0.047
308.15 K, x1 = 0.6565	942.3 ± 1	1.128 ± 0.046
308.15 K, x1 = 0.7447	966.5 ± 1	1.117 ± 0.046
308.15 K, x1 = 0.8528	995.5 ± 1	1.138 ± 0.046
308.15 K, x1 = 0.9419	1018 ± 1	1.175 ± 0.048
308.15 K, x1 = 1	1032.4 ± 1	1.22 ± 0.05
313.15 K, x1 = 0.0809	808.6 ± 1	1.746 ± 0.071
313.15 K, x1 = 0.1662	824.4 ± 1	1.537 ± 0.062
313.15 K, x1 = 0.2441	841.1 ± 1	1.37 ± 0.06
313.15 K, x1 = 0.3552	865.2 ± 1	1.185 ± 0.048
313.15 K, x1 = 0.4418	885.2 ± 1	1.088 ± 0.044
313.15 K, x1 = 0.5664	914.8 ± 1	1.021 ± 0.042
313.15 K, x1 = 0.6565	937.8 ± 1	0.999 ± 0.041
313.15 K, x1 = 0.7447	962 ± 1	0.999 ± 0.041
313.15 K, x1 = 0.8528	991.1 ± 1	1.035 ± 0.042
313.15 K, x1 = 0.9419	1013.9 ± 1	1.088 ± 0.044
313.15 K, x1 = 1	1027.9 ± 1	1.15 ± 0.05
318.15 K, x1 = 0.0809	804.2 ± 1	1.46 ± 0.06
318.15 K, x1 = 0.1662	820 ± 1	1.291 ± 0.053
318.15 K, x1 = 0.2441	836.7 ± 1	1.167 ± 0.048
318.15 K, x1 = 0.3552	860.8 ± 1	1.032 ± 0.042
318.15 K, x1 = 0.4418	881.4 ± 1	0.963 ± 0.039
318.15 K, x1 = 0.5664	910.4 ± 1	0.9 ± 0.04
318.15 K, x1 = 0.6565	933.4 ± 1	0.881 ± 0.036
318.15 K, x1 = 0.7447	957.4 ± 1	0.884 ± 0.036
318.15 K, x1 = 0.8528	986.6 ± 1	0.932 ± 0.038
318.15 K, x1 = 0.9419	1009.1 ± 1	1.011 ± 0.041
318.15 K, x1 = 1	1023.4 ± 1	1.09 ± 0.04
323.15 K, x1 = 0.0809	799.7 ± 1	1.206 ± 0.049
323.15 K, x1 = 0.1662	815.6 ± 1	1.068 ± 0.044
323.15 K, x1 = 0.2441	832.2 ± 1	0.984 ± 0.04
323.15 K, x1 = 0.3552	856.3 ± 1	0.887 ± 0.036
323.15 K, x1 = 0.4418	876.9 ± 1	0.831 ± 0.034
323.15 K, x1 = 0.5664	906.7 ± 1	0.789 ± 0.032
323.15 K, x1 = 0.6565	928.9 ± 1	0.782 ± 0.032
323.15 K, x1 = 0.7447	952.9 ± 1	0.799 ± 0.033
323.15 K, x1 = 0.8528	981.6 ± 1	0.85 ± 0.04
323.15 K, x1 = 0.9419	1004.5 ± 1	0.941 ± 0.038
323.15 K, x1 = 1	1019.1 ± 1	1.03 ± 0.04
